Data on 22 molecules can be found in patent US10308634B2, “Substituted indazoles, methods for the production thereof, pharmaceutical preparations that contain said new substituted indazoles, and use of said new substituted indazoles to produce drugs” (BAYER PHARMA AKTIENGESELLSCHAFT, priority 2014, dated 2019).

In one assay the target is human IRAK4 (Homo sapiens (Human), UniProt Q9NWZ3). The experiment in a line: IRAK4 kinase assay (IRAK4 TR-FRET assay). It counts as biochemical. How it is done:
The IRAK4-inhibitory activity of the inventive substances was measured in the IRAK4 TR-FRET assay (TR-FRET=Time Resolved Fluorescence Resonance Energy Transfer) described hereinafter.
Recombinant fusion protein from N-terminal GST (glutathione S-transferase) and human IRAK4, expressed in baculovirus-infected insect cells (Hi5, BTI-TN-5B1-4, cell line purchased from Invitrogen, catalogue No. B855-02) and purified via affinity chromatography, was used as enzyme. The substrate used for the kinase reaction was the biotinylated peptide biotin-Ahx-[…] (C-terminus in amide form) which can be purchased, for example, from Biosyntan GmbH (Berlin-Buch).
50 nl of the respective solution were pipetted into a black low-volume 384-well microtitre plate (Greiner Bio-One, Frickenhausen, Germany), 2 μl of a solution of IRAK4 in assay buffer [50 mM HEPES pH 7.5, 5 mM MgCl2, 1.0 mM dithiothreitol, 30 μM activated sodium orthovanadate, 0.1% (w/v) of bovine gamma-globulin (BGG) 0.04% (v/v) nonidet-P40 (Sigma)] were added and the mixture was incubated for 15 min to allow prebinding of the substances to the enzyme prior to the kinase reaction. […] The concentration of the IRAK4 was adjusted to the respective activity of the enzyme and set such that the assay was carried out in the linear range. Typical concentrations were in the order of about 0.2 nM.
The resulting mixture was incubated at 22° C. for 1 h to allow formation of a complex of the biotinylated phosphorylated substrate and the detection reagents. The amount of the phosphorylated substrate was then evaluated by measuring the resonance energy transfer from europium chelate-labelled anti-mouse-IgG antibody to streptavidin-XL665. […] The IC50 values were calculated by a 4-parameter fit.
On the technique in general: Time-resolved FRET reads energy transfer from a long-lived donor to a nearby acceptor.

The next assay relates to THP-1 cells. The experiment in a line: TNF-α secretion in THP-1 cells (LPS-triggered, HTRF). It counts as cell-based. The conditions noted are these: Homo sapiens, read-out: IC50 with respect to the secretion of TNF-α in THP-1 cells. How it is done: This test is suited to test substances for their ability to inhibit secretion of TNF-α (tumour necrosis factor alpha) in THP-1 cells (human monocytic acute leukaemia cell line). TNF-α is a cytokine involved in inflammatory processes. In this test, TNF-α secretion is triggered by incubation with bacterial lipopolysaccharide (LPS).
The cells were incubated at room temperature for 15 min. 2-2.5 μl of 0.1 μg/ml LPS (Sigma, Escherichia coli 055:B5, Cat. No. L5418) dissolved in cell culture medium (final concentration 0.05 μg/ml) were then dispensed into each well. As neutral control, cells were treated with 0.05 μg/ml LPS and 1% DMSO and, as inhibitor control, with 1% DMSO only.
The amount of TNF-α was determined using the TNF-alpha HTRF Detection Kit (Cisbio, Cat. No. 62TNFPEB/C). To this end, 2 μl of the detection solution in each case, consisting of anti-TNF-α-XL665 conjugate and anti-TNF-α-cryptate conjugate dissolved in the reconstitution buffer in accordance with the manufacturer's instructions, were added for the HTRF (Homogeneous Time-Resolved Fluorescence) test. After the addition, the mixture was incubated either at room temperature for 3 h or at 4° C. overnight.
The activity of the substances is expressed as the ratio between neutral and inhibitor control in percent. The IC50 values were calculated using a 4-parameter fit.

[1] abbreviates: TR-FRET, 1 mM ATP, read-out: IC50 in the IRAK4 kinase assay.

Each structure is given as a SMILES string. pIC50: −log10 of the molar value. Like-named read-outs stand apart in the source and are kept apart here.

Chain of human IRAK4 (Q9NWZ3 whole entry): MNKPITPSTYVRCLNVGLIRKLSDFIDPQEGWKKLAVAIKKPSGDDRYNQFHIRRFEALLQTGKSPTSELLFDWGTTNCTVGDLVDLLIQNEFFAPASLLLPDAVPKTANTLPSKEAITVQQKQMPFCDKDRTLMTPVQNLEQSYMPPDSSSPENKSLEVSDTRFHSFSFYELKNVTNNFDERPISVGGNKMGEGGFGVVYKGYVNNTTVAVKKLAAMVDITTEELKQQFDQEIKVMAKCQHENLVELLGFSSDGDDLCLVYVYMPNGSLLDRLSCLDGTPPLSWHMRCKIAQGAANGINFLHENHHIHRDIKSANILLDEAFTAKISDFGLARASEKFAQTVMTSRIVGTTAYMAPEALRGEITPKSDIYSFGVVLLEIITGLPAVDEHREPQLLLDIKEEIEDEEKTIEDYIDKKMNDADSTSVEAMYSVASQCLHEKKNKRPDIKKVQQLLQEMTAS

The term pIC50 denotes the IC50 on a negative log10 scale, so that one unit is a factor of ten. For `COCCn1cc2cc(NC(=O)c3cccc(C(F)(F)F)n3)c(C(C)(C)O)cc2n1` [Example 1, N-[6-(2-Hydroxypropan-2-yl)-2-(2-methoxyethyl)-2H-indazol-5-yl]-6-(trifluoromethyl)pyridine-2-carboxamide], the negative logarithm of the IC50 (pIC50) at human IRAK4 (setting [1]) is 7.51; with THP-1 cells (THP-1, 0.05 μg/ml LPS, 17 h), 6.00.

`CC(C)(O)c1cc2nn(CCCO)cc2cc1NC(=O)c1cccc(C(F)F)n1` [Example 15, 6-(Difluoromethyl)-N-[6-(2-hydroxypropan-2-yl)-2-(3-hydroxypropyl)-2H-indazol-5-yl]pyridine-2-carboxamide]: the pIC50 is 7.91 at human IRAK4 (setting [1]) and 6.70 in the assay with THP-1 cells (THP-1, 0.05 μg/ml LPS, 17 h).

Regarding `COCCCn1cc2cc(NC(=O)c3cccc(C(F)(F)F)n3)c(CO)cc2n1` [Example 4, N-[6-(Hydroxymethyl)-2-(3-methoxypropyl)-2H-indazol-5-yl]-6-(trifluoromethyl)pyridine-2-carboxamide], the negative logarithm of the IC50 (pIC50) at human IRAK4 (setting [1]) was 7.28; with THP-1 cells (THP-1, 0.05 μg/ml LPS, 17 h), 5.25.

In the case of `CC(C)(O)c1cc2nn(CC3COC3)cc2cc1NC(=O)c1cccc(C(F)(F)F)n1` [Example 8, N-[6-(2-Hydroxypropan-2-yl)-2-(oxetan-3-ylmethyl)-2H-indazol-5-yl]-6-(trifluoromethyl)pyridine-2-carboxamide], the negative logarithm of the IC50 (pIC50) at human IRAK4 (setting [1]) is 7.82; in the assay with THP-1 cells (THP-1, 0.05 μg/ml LPS, 17 h), 6.00.

In the case of `CC(C)(O)c1cc2nn(CCO)cc2cc1NC(=O)c1cccc(C(F)(F)F)n1` [Example 5, N-[2-(2-Hydroxyethyl)-6-(2-hydroxypropan-2-yl)-2H-indazol-5-yl]-6-(trifluoromethyl)pyridine-2-carboxamide], the negative logarithm of the IC50 (pIC50) on human IRAK4 (setting [1]) was 6.58; with THP-1 cells (THP-1, 0.05 μg/ml LPS, 17 h) it was 5.27.

`CC(C)(O)c1cc2nn(CCCC(F)(F)F)cc2cc1NC(=O)c1cccc(C(F)(F)F)n1` [Example 16, N-[6-(2-Hydroxypropan-2-yl)-2-(4,4,4-trifluorobutyl)-2H-indazol-5-yl]-6-(trifluoromethyl)pyridine-2-carboxamide]: the pIC50 on human IRAK4 (setting [1]) was 7.67; in the assay with THP-1 cells (THP-1, 0.05 μg/ml LPS, 17 h), 6.70.

Take `CC(C)(O)c1cc2nn(CCCOCC(F)(F)F)cc2cc1NC(=O)c1cccc(C(F)(F)F)n1` [Example 18, N-{6-(2-Hydroxypropan-2-yl)-2-[3-(2,2,2-trifluoroethoxy)propyl]-2H-indazol-5-yl}-6-(trifluoromethyl)pyridine-2-carboxamide]: the negative-log IC50 (pIC50) is 7.32 at human IRAK4 (setting [1]) and 6.52 in the assay on THP-1 cells (THP-1, 0.05 μg/ml LPS, 17 h).

As for `CC(C)(O)c1cc2nn(CCCS(C)(=O)=O)cc2cc1NC(=O)c1cccc(C(F)(F)F)n1` [Example 10, N-{6-(2-Hydroxypropan-2-yl)-2-[3-(methylsulphonyl)propyl]-2H-indazol-5-yl}-6-(trifluoromethyl)pyridine-2-carboxamide], the negative-log IC50 (pIC50) on human IRAK4 (setting [1]) is 7.73; in the assay on THP-1 cells (THP-1, 0.05 μg/ml LPS, 17 h), 6.00.

`COCCn1cc2cc(NC(=O)c3cccc(C(F)(F)F)n3)c(C(=O)OC)cc2n1` [Intermediate 4-2, Methyl 2-(2-methoxyethyl)-5-({[6-(trifluoromethyl)pyridin-2-yl]carbonyl}amino)-2H-indazole-6-carboxylate] gave a negative logarithm of the IC50 (pIC50) at human IRAK4 of 7.66.

On to `Cc1cccc(C(=O)Nc2cc3cn(CCC(C)(C)O)nc3cc2C(C)(C)O)n1` [Example 20, N-[2-(3-Hydroxy-3-methylbutyl)-6-(2-hydroxypropan-2-yl)-2H-indazol-5-yl]-6-methylpyridine-2-carboxamide], for which the negative-log IC50 (pIC50) at human IRAK4 (setting [1]) was 7.88; in the assay with THP-1 cells (THP-1, 0.05 μg/ml LPS, 17 h), 6.70.

Regarding `O=C(Nc1cc2cn(CC3COC3)nc2cc1CO)c1cccc(C(F)(F)F)n1` [Example 9, N-[6-(Hydroxymethyl)-2-(oxetan-3-ylmethyl)-2H-indazol-5-yl]-6-(trifluoromethyl)pyridine-2-carboxamide], the negative logarithm of the IC50 (pIC50) was 6.98 at human IRAK4 (setting [1]) and 5.19 with THP-1 cells (THP-1, 0.05 μg/ml LPS, 17 h).

For the molecule `COCCCn1cc2cc(NC(=O)c3cccc(C(F)(F)F)n3)c(C(=O)OC)cc2n1` [Intermediate 4-3, Methyl 2-(3-methoxypropyl)-5-({[6-(trifluoromethyl)pyridin-2-yl]carbonyl}amino)-2H-indazole-6-carboxylate], the pIC50 against human IRAK4 is 7.89.

Turning to `CC(C)(O)c1cc2nn(CCS(C)(=O)=O)cc2cc1NC(=O)c1cccc(C(F)F)n1` [Example 14, 6-(Difluoromethyl)-N-{6-(2-hydroxypropan-2-yl)-2-[2-(methylsulphonyl)ethyl]-2H-indazol-5-yl}pyridine-2-carboxamide], the negative-log IC50 (pIC50) was 7.97 on human IRAK4 (setting [1]) and 6.70 with THP-1 cells (THP-1, 0.05 μg/ml LPS, 17 h).

With `O=C(Nc1cc2cn(CCO)nc2cc1CO)c1cccc(C(F)(F)F)n1` [Example 7, N-[2-(2-Hydroxyethyl)-6-(hydroxymethyl)-2H-indazol-5-yl]-6-(trifluoromethyl)pyridine-2-carboxamide], the pIC50 is 6.06 at human IRAK4 (setting [1]) and 4.79 in the assay with THP-1 cells (THP-1, 0.05 μg/ml LPS, 17 h).

As for `Cc1nc(C(=O)Nc2cc3cn(CCC(C)(C)O)nc3cc2C(C)(C)O)ccc1F` [Example 19, 5-Fluoro-N-[2-(3-hydroxy-3-methylbutyl)-6-(2-hydroxypropan-2-yl)-2H-indazol-5-yl]-6-methylpyridine-2-carboxamide], the negative-log IC50 (pIC50) on human IRAK4 (setting [1]) was 8.05; with THP-1 cells (THP-1, 17 h), 7.00.

Take `CC(C)(O)c1cccc(C(=O)Nc2cc3cn(CCCC(F)(F)F)nc3cc2C(C)(C)O)n1` [Example 21, 6-(2-Hydroxypropan-2-yl)-N-[6-(2-hydroxypropan-2-yl)-2-(4,4,4-trifluorobutyl)-2H-indazol-5-yl]pyridine-2-carboxamide]: the negative-log IC50 (pIC50) was 6.93 on human IRAK4 (setting [1]) and 5.74 in the assay with THP-1 cells (THP-1, 0.05 μg/ml LPS, 17 h).

With `CC(C)(O)c1cc2nn(CCCOC(F)(F)F)cc2cc1NC(=O)c1cccc(C(F)(F)F)n1` [Example 17, N-{6-(2-Hydroxypropan-2-yl)-2-[3-(trifluoromethoxy)propyl]-2H-indazol-5-yl}-6-(trifluoromethyl)pyridine-2-carboxamide], the pIC50 at human IRAK4 (setting [1]) is 7.44; with THP-1 cells (THP-1, 0.05 μg/ml LPS, 17 h) it was 6.30.

`CC(C)(O)c1cc2nn(CCCO)cc2cc1NC(=O)c1cccc(C(F)(F)F)n1` [Example 6, N-[6-(2-Hydroxypropan-2-yl)-2-(3-hydroxypropyl)-2H-indazol-5-yl]-6-(trifluoromethyl)pyridine-2-carboxamide]: the negative logarithm of the IC50 (pIC50) on human IRAK4 (setting [1]) is 7.45; in the assay with THP-1 cells (THP-1, 0.05 μg/ml LPS, 17 h), 6.05.

The molecule `COC(=O)c1cc2nn(CCC(C)(C)O)cc2cc1NC(=O)c1cccc(C(F)(F)F)n1` [Intermediate 4-4, Methyl 2-(3-hydroxy-3-methylbutyl)-5-({[6-(trifluoromethyl)pyridin-2-yl]carbonyl}amino)-2H-indazole-6-carboxylate] gave a negative logarithm of the IC50 (pIC50) at human IRAK4 of 8.21.

`CC(C)(O)CCn1cc2cc(NC(=O)c3cccc(C(F)F)n3)c(C(C)(C)O)cc2n1` [Example 13, 6-(Difluoromethyl)-N-[2-(3-hydroxy-3-methylbutyl)-6-(2-hydroxypropan-2-yl)-2H-indazol-5-yl]pyridine-2-carboxamide]: the pIC50 at human IRAK4 (setting [1]) was 8.89; with THP-1 cells (THP-1, 17 h) it was 7.00.

As to `COCCn1cc2cc(NC(=O)c3cccc(C(F)(F)F)n3)c(CO)cc2n1` [Example 2, N-[6-(Hydroxymethyl)-2-(2-methoxyethyl)-2H-indazol-5-yl]-6-(trifluoromethyl)pyridine-2-carboxamide], the pIC50 with THP-1 cells (THP-1, 0.05 μg/ml LPS, 17 h) is 4.82.

For the molecule `CC(C)(O)c1cc2nn(CCC3(O)CC3)cc2cc1NC(=O)c1cccc(C(F)(F)F)n1` [Example 22, N-{2-[2-(1-Hydroxycyclopropyl)ethyl]-6-(2-hydroxypropan-2-yl)-2H-indazol-5-yl}-6-(trifluoromethyl)pyridine-2-carboxamide], the negative logarithm of the IC50 (pIC50) on human IRAK4 (setting [1]) was 8.43.
